Consider 2 molecules from PMC2813745, “A novel inhibitor of the PI3K/Akt pathway based on the structure of inositol 1,3,4,5,6-pentakisphosphate” (British Journal of Cancer, 2010).

By inhibition is commonly meant the change of the read-out against control, counted positive when it falls.

For one data set, the target named is AKT3 (PKBγ) (Homo sapiens, UniProt Q9Y243). In words: SelectScreen kinase profiling: AKT3. The following applies: [ATP] 100 µM. It is filed as biochemical. As to the method: (§1) Effect of the indicated compounds on the activity of various kinases was assessed by SelectScreen Kinase Profiling Service (Invitrogen-Life Technologies, Paisley, UK). Assays were performed using 1 μM of the tested compounds and ATP concentration as indicated in the corresponding tables. In the case of […] a screen using 10 μM of the compound was also carried out, as indicated in the corresponding table.

For another data set, the target named is AMPK A2/B1/G1 (Homo sapiens, UniProt P54646). Nature of the data set: SelectScreen kinase profiling: AMPK A2/B1/G1. Conditions: 1 µM compound; [ATP] 150 µM. In kind it is biochemical. Here is the method: as §1
A further data set concerns the target AURKA (Aurora A) (Homo sapiens, UniProt O14965). Nature of the data set: SelectScreen kinase profiling: AURKA. In kind it is biochemical. Conditions: 1 µM compound; [ATP] 10 µM. Here is the method: as §1
The next data set has as its target BTK (Homo sapiens, UniProt Q06187). Nature of the data set: SelectScreen kinase profiling: BTK. It is filed as biochemical. The following applies: [ATP] 25 µM. Here is the method:
as §1

In the next data set the target is CDC42 BPA (MRCKA) (Homo sapiens, UniProt Q5VT25). In words: SelectScreen kinase profiling: CDC42 BPA. It is filed as biochemical. Conditions: [ATP] 5 µM. Here is the method: as §1
The target of the next data set is CDK5/p25 (Homo sapiens, UniProt Q00535). In words: SelectScreen kinase profiling: CDK5/p25. It is filed as biochemical. Conditions: [ATP] 10 µM. Here is the method:
as §1

Another data set deals with CSNK2A2 (CK2α2) (Homo sapiens, UniProt P19784). Nature of the data set: SelectScreen kinase profiling: CSNK2A2. In kind it is biochemical. The following applies: [ATP] 50 µM. Here is the method:
as §1

In the next data set the target is GSK3B (GSK3β) (Homo sapiens, UniProt P49841). Nature of the data set: SelectScreen kinase profiling: GSK3B. In kind it is biochemical. The following applies: [ATP] 10 µM. As to the method: as §1
The target of the next data set is MAP2K1 (MEK1) (Homo sapiens, UniProt Q02750). Nature of the data set: SelectScreen kinase profiling: MAP2K1. It is filed as biochemical. Conditions: [ATP] 100 µM. Here is the method:
as §1

The target of the next data set is MAPKAPK2 (Homo sapiens, UniProt P49137). Nature of the data set: SelectScreen kinase profiling: MAPKAPK2. In kind it is biochemical. Conditions: 1 µM compound; [ATP] 5 µM. Here is the method:
as §1

The target in another data set is MARK1 (MARK) (Homo sapiens, UniProt Q9P0L2). In words: SelectScreen kinase profiling: MARK1. It is filed as biochemical. The following applies: [ATP] 5 µM. As to the method: as §1
In another data set the target is PRKCA (PKCα) (Homo sapiens, UniProt P17252). Nature of the data set: SelectScreen kinase profiling: PRKCA. It is filed as biochemical. Conditions: [ATP] 25 µM. Here is the method: as §1
For the next data set, the target named is PRKCZ (PKCζ) (Homo sapiens, UniProt Q05513). Nature of the data set: SelectScreen kinase profiling: PRKCZ. It is filed as biochemical. Conditions: [ATP] 5 µM. Here is the method:
as §1

The next data set deals with RAF1 (cRAF) Y340D Y341D (Homo sapiens, UniProt P04049, Y340D/Y341D). In words: SelectScreen kinase profiling: RAF1. In kind it is biochemical. The following applies: [ATP] 100 µM. Here is the method: as §1
The target in a further data set is RPS6KA1 (RSK1) (Homo sapiens, UniProt Q15418). In words: SelectScreen kinase profiling: RPS6KA1. In kind it is biochemical. The following applies: [ATP] 5 µM. As to the method: as §1
The next data set has as its target PI4KB (PI4Kβ) (Homo sapiens, UniProt Q9UBF8). Nature of the data set: SelectScreen kinase profiling: PI4KB. The following applies: [ATP] 5 µM. In kind it is biochemical. As to the method: as §1
The next data set deals with PC3. In words: SRB assay, PC3. In kind it is cell-based, human. The following applies: PC3, 72 h. Here is the method: Cells seeded in a 24-well plate were treated with the indicated compounds in serum free DMEM or DMEM containing 0.5% FBS (PC3). After 72 h, the number of surviving cells was assessed by manual cell counting or by using the cell counter CDA-500 (Sysmex, Milton Keynes, UK). Alternatively, after 48 h, the number of apoptotic cells was assessed by acridine orange/ethidium bromide assay as described ([Piccolo et al, 2004]; [Maffucci et al, 2005]). SRB test was carried out in SKOV-3 and PC3 seeded in 96-well plate (3800 cells per well or 5800 cells per well, respectively) after 72 h of treatment as described ([Cappella et al, 2001]).
The number of surviving cells was assessed by cell counting. Data are mean±s.e. of n=3 (A), n=6 (B), n=3 (C) and n=4 (D) independent experiments carried out in duplicate. ^*=P<0.01; ^**=P<0.05. […] After 72 h the number of surviving cells was assessed by SRB assay. Data are mean±s.e. of n=2 independent experiments.
Data are mean±s.e. of n=4 independent experiments carried out in duplicate. […] Data are mean±s.e. of n=5 independent experiments carried out in duplicate. […] Data are mean±s.e. of n=6 independent experiments carried out in duplicate. […] Data are mean±s.e. of n=2 independent experiments carried out in duplicate. In all cases (A–D), cells were treated for 72 h and the number of surviving cells was assessed by cell counting. […] In all cases (E, F), cells were treated for 72 h and the number of surviving cells was assessed by SRB assay and data are mean±s.e. of two experiments carried out in quadruplicate.
For orientation: In SRB staining, fixed cells bind dye roughly in proportion to their protein.

The next data set in a line: Toxicity in mice. In kind it is in vivo, nude CD-1 mice. Conditions: for body weight of the treated animals / toxicity: 12.5, 25, 50 mg kg^−1 day^−1 i.p., 14 consecutive days; for toxic effect: single dose 750 mg kg^−1 i.p. Here is the method: Each group consisted of 2–3 mice. Body weight, deaths and any other sign of toxicity and changes in behaviour (such as motility, eating and drinking habits) were recorded.
Exponentially growing PC3 cells were harvested, washed twice and resuspended in PBS at a concentration of 2.5 × 10^7 cells ml^−1. A suspension of 5 × 10^6 PC3 cells was injected subcutaneously (s.c.) into the left flank of the recipient mice. When tumours reached a size of ∼70 mm^3 (approximately 15 days after tumour cell implant), mice were divided into seven groups (n=7). […] Control mice were treated with water in an equal volume. The diameters of s.c. growing tumours were measured with a caliper twice a week and the experiment was ended at day 28 after the implantation.
The inositol compounds (12.5–25–50 mg kg^−1 day^−1) and vehicle (water) were given daily by intraperitoneal (i.p.) injections for 14 consecutive days (days 15–28). Tumour size was assessed twice weekly. (A, B) Tumour growth in 2-O-Bn-InsP5-treated mice (A) and InsP5-treated mice (B) compared with control group measured for the duration of the experiment. Results are expressed as mean±s.e. (C) Top: Table showing all P-values for the indicated doses of 2-O-Bn-InsP5 compared to controls at the indicated days of treatment (NS=not significant). Bottom: In vivo anti-tumour activity parameters. The percentage of tumour weight inhibition (TWI%), the tumour growth delay (T−C) and the log cell kill (LCK) were calculated as described in the MATERIALS AND METHODS section. The highest inhibition of tumour volume is reported. […] Tumours were excised 24 h after treatment. Phosphorylation of Akt at its residues Ser473 and Thr308 was assessed by using specific antibodies. Membranes were then stripped and re-probed with an anti-Akt antibody.

The next data set is described as follows: Water solubility. It is filed as physicochemical.

Sequence of PRKCZ (PKCζ) (Q05513 whole entry): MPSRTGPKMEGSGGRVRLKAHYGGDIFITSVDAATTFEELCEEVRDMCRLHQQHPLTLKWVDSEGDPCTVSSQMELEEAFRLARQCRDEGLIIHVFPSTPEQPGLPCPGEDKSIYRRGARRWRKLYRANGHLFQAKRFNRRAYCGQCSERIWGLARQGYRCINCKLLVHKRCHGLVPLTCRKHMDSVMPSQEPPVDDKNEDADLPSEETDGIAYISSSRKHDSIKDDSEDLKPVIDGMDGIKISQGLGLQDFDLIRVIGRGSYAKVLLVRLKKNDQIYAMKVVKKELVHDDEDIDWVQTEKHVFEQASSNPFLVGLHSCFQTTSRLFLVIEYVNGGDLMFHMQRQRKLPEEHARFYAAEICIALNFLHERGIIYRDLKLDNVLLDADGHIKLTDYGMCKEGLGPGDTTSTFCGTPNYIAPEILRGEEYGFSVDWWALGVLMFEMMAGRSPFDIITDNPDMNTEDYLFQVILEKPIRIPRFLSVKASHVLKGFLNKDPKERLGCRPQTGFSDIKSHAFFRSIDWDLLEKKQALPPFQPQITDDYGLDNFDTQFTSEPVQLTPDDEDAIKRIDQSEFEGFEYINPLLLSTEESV
Sequence of MAP2K1 (MEK1) (Q02750 whole entry): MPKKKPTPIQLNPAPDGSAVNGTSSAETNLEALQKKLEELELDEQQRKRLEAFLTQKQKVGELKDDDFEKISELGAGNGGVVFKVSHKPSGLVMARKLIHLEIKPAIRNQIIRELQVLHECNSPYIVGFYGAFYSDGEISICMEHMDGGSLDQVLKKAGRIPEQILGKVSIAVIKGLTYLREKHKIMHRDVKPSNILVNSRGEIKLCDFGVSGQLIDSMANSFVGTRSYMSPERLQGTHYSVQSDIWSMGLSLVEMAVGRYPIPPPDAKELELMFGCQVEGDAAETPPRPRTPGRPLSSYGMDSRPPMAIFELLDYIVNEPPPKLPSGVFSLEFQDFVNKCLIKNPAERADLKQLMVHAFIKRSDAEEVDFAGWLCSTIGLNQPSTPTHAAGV
Sequence of AKT3 (PKBγ) (Q9Y243 whole entry): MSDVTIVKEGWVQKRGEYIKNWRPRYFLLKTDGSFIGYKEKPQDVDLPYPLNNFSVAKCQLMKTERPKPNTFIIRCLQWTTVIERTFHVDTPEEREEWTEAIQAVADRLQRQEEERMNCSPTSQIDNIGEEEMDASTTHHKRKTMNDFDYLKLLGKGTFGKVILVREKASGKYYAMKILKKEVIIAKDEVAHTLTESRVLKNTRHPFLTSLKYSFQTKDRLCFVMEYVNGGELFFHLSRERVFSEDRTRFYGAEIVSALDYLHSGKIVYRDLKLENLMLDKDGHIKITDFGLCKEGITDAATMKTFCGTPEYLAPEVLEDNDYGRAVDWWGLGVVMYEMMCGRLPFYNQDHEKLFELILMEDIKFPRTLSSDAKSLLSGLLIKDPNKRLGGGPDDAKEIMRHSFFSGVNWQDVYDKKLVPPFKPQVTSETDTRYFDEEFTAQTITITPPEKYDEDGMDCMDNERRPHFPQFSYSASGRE
Sequence of CDC42 BPA (MRCKA) (Q5VT25 whole entry): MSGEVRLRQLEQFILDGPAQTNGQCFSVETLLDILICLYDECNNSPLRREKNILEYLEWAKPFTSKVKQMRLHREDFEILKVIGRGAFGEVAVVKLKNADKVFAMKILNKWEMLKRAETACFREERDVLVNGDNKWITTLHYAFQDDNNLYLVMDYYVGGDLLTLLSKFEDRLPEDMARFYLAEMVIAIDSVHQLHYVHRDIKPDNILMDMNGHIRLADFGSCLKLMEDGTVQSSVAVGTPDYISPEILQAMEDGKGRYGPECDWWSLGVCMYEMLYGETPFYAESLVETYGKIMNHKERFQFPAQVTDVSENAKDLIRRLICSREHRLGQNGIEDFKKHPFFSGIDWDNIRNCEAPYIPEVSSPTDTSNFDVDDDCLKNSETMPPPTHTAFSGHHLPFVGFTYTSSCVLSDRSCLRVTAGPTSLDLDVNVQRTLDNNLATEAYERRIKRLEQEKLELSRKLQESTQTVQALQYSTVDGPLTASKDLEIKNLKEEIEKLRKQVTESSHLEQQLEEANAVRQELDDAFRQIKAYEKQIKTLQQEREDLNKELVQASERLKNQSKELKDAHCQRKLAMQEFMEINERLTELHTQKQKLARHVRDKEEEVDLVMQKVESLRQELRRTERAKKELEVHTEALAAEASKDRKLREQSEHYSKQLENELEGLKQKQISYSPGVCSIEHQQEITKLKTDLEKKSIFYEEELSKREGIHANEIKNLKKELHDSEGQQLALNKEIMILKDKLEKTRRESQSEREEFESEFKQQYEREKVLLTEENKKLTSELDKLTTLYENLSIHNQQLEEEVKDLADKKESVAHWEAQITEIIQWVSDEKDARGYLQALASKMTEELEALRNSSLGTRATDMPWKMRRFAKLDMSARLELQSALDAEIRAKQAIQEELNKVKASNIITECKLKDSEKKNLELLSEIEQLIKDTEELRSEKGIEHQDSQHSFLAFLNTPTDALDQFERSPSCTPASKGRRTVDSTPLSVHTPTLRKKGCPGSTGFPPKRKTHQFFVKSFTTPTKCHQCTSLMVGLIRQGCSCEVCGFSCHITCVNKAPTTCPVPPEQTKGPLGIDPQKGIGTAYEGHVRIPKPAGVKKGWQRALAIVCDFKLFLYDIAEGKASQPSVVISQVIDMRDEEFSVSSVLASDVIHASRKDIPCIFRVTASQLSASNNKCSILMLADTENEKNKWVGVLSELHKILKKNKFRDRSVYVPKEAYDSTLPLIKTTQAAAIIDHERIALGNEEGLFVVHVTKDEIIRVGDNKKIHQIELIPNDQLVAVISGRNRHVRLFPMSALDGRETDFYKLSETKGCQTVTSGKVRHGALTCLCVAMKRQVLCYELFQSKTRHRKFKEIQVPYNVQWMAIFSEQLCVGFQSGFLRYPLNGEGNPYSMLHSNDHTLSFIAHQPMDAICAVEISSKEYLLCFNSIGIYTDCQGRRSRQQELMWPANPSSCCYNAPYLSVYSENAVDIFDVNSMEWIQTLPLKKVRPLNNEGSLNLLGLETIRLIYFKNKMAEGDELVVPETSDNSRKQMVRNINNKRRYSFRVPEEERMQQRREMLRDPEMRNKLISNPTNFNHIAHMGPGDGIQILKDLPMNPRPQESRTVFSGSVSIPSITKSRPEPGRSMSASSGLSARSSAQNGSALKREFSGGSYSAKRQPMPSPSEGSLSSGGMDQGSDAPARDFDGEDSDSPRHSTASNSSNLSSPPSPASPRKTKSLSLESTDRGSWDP
Sequence of GSK3B (GSK3β) (P49841 whole entry): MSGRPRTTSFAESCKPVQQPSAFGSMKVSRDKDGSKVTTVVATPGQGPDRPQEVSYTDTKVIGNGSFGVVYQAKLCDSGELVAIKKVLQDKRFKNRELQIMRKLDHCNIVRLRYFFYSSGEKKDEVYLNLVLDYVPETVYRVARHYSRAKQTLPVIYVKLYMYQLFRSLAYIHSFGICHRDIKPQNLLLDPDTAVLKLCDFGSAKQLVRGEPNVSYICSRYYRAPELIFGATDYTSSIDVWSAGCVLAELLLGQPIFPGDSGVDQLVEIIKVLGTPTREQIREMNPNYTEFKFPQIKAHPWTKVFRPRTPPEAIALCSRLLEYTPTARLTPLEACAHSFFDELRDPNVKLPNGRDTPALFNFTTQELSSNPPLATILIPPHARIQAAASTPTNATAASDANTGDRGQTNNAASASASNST
Sequence of CSNK2A2 (CK2α2) (P19784 whole entry): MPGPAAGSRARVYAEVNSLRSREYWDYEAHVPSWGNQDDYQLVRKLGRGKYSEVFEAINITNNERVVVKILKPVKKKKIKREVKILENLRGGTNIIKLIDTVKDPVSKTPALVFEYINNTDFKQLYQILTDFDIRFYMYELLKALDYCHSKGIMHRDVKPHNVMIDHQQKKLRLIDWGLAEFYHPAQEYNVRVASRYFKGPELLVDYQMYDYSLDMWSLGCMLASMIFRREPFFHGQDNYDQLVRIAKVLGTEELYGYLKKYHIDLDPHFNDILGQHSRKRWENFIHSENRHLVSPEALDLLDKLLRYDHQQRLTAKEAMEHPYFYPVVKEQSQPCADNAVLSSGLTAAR
Sequence of RPS6KA1 (RSK1) (Q15418 whole entry): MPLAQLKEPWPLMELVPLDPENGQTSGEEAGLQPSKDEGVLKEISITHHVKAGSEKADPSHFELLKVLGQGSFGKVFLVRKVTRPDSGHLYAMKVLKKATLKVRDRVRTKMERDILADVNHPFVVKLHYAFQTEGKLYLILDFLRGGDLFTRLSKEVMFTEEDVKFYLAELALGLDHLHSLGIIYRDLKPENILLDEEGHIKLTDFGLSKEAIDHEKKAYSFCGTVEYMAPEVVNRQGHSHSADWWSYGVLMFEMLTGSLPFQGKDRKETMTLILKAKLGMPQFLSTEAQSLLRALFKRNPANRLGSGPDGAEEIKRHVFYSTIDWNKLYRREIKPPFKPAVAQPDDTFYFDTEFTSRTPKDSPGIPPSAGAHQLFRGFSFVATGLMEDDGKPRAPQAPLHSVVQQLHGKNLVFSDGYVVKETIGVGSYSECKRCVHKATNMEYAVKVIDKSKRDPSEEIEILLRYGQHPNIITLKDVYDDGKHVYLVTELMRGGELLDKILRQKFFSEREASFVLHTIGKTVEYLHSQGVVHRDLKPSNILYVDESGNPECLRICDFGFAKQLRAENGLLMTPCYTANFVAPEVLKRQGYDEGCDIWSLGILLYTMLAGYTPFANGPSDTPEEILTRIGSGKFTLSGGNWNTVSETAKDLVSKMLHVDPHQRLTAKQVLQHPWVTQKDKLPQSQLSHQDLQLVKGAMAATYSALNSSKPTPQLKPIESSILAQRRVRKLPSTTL

As to `O=P(O)(O)OC1C(OCc2ccccc2)C(OP(=O)(O)O)C(OP(=O)(O)O)C(OP(=O)(O)O)C1OP(=O)(O)O` (centres unmarked) [2-O-Bn-InsP5, 2-O-benzyl-myo-inositol 1,3,4,5,6-pentakisphosphate], the inhibition at 1 µM at AKT3 (PKBγ) (1 µM compound) turned out to be 10%; against AMPK A2/B1/G1 it was 25%; on AURKA (Aurora A), 34%; on BTK (1 µM compound), 5%; on CDC42 BPA (MRCKA) (1 µM compound), 17%; at CDK5/p25 (1 µM compound) it was 3%. Also, the inhibition at 1 µM against CSNK2A2 (CK2α2) (1 µM compound) came out at 2%; at GSK3B (GSK3β) (1 µM compound), 11%; at MAP2K1 (MEK1) (1 µM compound), 14%; against MAPKAPK2 it was 20%; on MARK1 (MARK) (1 µM compound) it was 0%; against PRKCA (PKCα) (1 µM compound), 21%. The inhibition at 1 µM at PRKCZ (PKCζ) (1 µM compound) was determined as 10%; against RAF1 (cRAF) Y340D Y341D (1 µM compound), 5%; against RPS6KA1 (RSK1) (1 µM compound), 2%; at PI4KB (PI4Kβ) (1 µM compound) it was 0%. In addition, the “number of surviving cells” value in the data set on PC3 is reported as “Higher activity”. In “Toxicity in mice”, the “body weight of the treated animals” value was “not different from the untreated mice”. The toxicity entry in “Toxicity in mice” is “no evidence of toxicity”. In “Toxicity in mice” (relative to the active dose), the tolerability in vivo result is “well tolerated in vivo even at concentrations 15 times higher the active dose”. Besides, in the data set “Toxicity in mice”, the toxic effect entry is recorded as “did not cause any major toxic effect”. Besides, in “Water solubility”, the water solubility result is on record as “water soluble compound”.
Turning to `O=P(O)(O)OC1C(O)C(OP(=O)(O)O)C(OP(=O)(O)O)C(OP(=O)(O)O)C1OP(=O)(O)O` (centres unmarked) [InsP5, inositol 1,3,4,5,6-pentakisphosphate], the inhibition at 10 µM against AKT3 (PKBγ) (10 µM compound) came to 10%; at BTK (10 µM compound), 8%; against CDC42 BPA (MRCKA) (10 µM compound) it was 0%; against CDK5/p25 (10 µM compound), 13%; against CSNK2A2 (CK2α2) (10 µM compound), 18%; against GSK3B (GSK3β) (10 µM compound), 20%. Moreover, the inhibition at 10 µM against MAP2K1 (MEK1) (10 µM compound) was 7%; against MARK1 (MARK) (10 µM compound) it was 7%; at PRKCA (PKCα) (10 µM compound), 30%; on PRKCZ (PKCζ) (10 µM compound), -8%; on RAF1 (cRAF) Y340D Y341D (10 µM compound), 18%; against RPS6KA1 (RSK1) (10 µM compound), 12%. Also, on PI4KB (PI4Kβ) (10 µM compound), the inhibition at 10 µM was determined as 3%. Also, the inhibition at 1 µM was found to be 7% against AMPK A2/B1/G1, 1% against AURKA (Aurora A) and 4% against MAPKAPK2. For the same molecule, the “concentrations able to mimic the effect of 2-O-Bn-InsP5” value in the data set on PC3 was 200 to 300 µM. In addition, the “number of surviving cells” value in the data set on PC3 is given as “no effect in PC3 at concentrations up to 50 μM”. Also, the “body weight of the treated animals” value in “Toxicity in mice” is “not different from the untreated mice”. In addition, in the data set “Toxicity in mice”, the toxicity entry is “no evidence of toxicity”. Moreover, the toxic effect result in the data set “Toxicity in mice” is “did not cause any major toxic effect”. Further, the water solubility result in the data set “Water solubility” is recorded as “water soluble compound”.
